Columns and labels:
[1] = target: Proto-oncogene tyrosine-protein kinase Src (Homo sapiens) (UniProt P12931); experiment: Inhibition of cSRC (unknown origin) at 5.5 uM by Caliper Mobility Shift Assay
[2] = target: Fibroblast growth factor receptor 3 (Homo sapiens) (UniProt P22607); experiment: Inhibition of FGFR3 (unknown origin) at 5.5 uM by Caliper Mobility Shift Assay
[3] = target: Interleukin-1 receptor-associated kinase 1 (Homo sapiens) (UniProt P51617); experiment: Inhibition of IRAK1 (unknown origin) at 5.5 uM by Caliper Mobility Shift Assay
[4] = target: Mitogen-activated protein kinase 14 (Homo sapiens, UniProt Q16539); experiment: Inhibition of p38a (unknown origin) at 5.5 uM by Caliper Mobility Shift Assay
[5] = target: Epidermal growth factor receptor (Homo sapiens) (UniProt P00533); experiment: Inhibition of EGFR (unknown origin) assessed as phosphorylation of ATF-2 at 5.5 uM by ELISA
[6] = target: T1, Activin receptor type-1 (Homo sapiens) (UniProt Q04771); experiment: Inhibition of ALK2 (unknown origin) assessed as phosphorylation of ATF-2 at 5.5 uM by ELISA
T1 sequence (whole entry): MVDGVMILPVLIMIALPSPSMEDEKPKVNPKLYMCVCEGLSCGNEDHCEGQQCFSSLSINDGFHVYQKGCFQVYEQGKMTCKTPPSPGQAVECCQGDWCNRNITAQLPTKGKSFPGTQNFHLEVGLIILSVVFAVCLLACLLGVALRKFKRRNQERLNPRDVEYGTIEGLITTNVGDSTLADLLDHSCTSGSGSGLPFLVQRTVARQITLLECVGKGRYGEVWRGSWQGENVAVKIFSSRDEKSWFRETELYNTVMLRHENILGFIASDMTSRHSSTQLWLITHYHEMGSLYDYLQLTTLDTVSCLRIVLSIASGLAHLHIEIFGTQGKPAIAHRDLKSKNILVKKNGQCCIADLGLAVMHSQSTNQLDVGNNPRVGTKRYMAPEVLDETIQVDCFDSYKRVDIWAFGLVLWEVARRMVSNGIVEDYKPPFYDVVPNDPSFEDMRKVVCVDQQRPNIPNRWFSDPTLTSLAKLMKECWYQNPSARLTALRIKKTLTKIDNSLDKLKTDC

Sequence of Proto-oncogene tyrosine-protein kinase Src (Homo sapiens) (P12931 2-536 limits assumed): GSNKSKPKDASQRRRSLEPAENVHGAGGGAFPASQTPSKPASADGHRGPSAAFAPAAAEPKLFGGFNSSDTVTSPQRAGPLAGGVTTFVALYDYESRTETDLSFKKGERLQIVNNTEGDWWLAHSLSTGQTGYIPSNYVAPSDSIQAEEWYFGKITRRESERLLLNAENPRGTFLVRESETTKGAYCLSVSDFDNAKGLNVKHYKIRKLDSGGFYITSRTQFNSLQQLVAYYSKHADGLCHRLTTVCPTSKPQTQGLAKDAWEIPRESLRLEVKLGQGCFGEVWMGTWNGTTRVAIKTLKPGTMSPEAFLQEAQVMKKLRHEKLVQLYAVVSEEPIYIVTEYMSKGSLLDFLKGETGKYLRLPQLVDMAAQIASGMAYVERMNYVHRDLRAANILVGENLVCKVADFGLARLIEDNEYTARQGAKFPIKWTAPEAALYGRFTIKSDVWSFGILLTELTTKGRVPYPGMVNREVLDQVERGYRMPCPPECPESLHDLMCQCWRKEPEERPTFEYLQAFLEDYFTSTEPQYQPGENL
Sequence of Fibroblast growth factor receptor 3 (Homo sapiens) (P22607 23-806 limits assumed): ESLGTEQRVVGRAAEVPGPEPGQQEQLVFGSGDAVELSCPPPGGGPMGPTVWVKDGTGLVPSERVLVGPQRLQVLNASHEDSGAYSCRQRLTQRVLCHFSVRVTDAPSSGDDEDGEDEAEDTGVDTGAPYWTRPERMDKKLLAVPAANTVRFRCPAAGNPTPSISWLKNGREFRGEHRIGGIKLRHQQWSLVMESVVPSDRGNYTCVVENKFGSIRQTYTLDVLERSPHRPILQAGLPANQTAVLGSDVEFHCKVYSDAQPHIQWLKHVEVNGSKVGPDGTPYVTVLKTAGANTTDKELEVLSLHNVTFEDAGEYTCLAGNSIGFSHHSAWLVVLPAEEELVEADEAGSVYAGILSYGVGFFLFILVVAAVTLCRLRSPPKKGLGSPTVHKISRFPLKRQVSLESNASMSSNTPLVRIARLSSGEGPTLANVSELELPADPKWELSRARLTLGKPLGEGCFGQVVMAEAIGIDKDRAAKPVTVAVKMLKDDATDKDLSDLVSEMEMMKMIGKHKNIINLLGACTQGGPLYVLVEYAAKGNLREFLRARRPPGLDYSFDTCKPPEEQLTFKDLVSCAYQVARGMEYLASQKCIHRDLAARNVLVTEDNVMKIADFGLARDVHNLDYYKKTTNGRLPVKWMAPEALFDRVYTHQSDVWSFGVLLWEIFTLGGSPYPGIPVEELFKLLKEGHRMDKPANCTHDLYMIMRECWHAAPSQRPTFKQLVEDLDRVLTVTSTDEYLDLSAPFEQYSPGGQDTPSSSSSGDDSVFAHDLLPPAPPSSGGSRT
Sequence of Interleukin-1 receptor-associated kinase 1 (Homo sapiens) (P51617 whole entry, looked up): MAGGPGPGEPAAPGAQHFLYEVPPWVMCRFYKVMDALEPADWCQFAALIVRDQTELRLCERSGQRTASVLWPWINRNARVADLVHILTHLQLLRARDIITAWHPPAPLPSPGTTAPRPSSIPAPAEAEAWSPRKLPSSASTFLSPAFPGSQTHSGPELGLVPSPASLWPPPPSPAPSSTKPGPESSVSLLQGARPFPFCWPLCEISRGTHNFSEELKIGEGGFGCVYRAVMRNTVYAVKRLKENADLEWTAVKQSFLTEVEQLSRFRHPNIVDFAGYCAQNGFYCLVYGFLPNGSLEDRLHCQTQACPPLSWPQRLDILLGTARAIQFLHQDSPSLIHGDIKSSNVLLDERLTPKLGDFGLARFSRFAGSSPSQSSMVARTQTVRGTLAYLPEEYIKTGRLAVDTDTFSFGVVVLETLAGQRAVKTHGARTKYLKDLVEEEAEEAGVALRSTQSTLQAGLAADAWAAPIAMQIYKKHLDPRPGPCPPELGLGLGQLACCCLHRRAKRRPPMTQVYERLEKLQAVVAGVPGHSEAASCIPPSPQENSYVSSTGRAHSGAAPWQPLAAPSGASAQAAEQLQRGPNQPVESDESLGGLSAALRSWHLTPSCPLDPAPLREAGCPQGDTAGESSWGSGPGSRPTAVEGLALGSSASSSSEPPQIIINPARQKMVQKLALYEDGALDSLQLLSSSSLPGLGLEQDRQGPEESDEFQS
Sequence of Mitogen-activated protein kinase 14 (Q16539 whole entry): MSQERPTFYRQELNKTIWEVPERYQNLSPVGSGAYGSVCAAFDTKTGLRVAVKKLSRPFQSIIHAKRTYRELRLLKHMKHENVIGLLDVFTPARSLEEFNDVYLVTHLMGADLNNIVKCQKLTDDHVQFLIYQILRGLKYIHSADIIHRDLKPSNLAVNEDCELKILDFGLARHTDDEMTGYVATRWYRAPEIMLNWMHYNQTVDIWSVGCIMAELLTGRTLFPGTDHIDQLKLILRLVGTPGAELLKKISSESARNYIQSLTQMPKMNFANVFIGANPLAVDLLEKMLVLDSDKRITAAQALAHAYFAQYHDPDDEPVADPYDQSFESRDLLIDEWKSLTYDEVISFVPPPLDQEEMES
Sequence of Epidermal growth factor receptor (Homo sapiens) (P00533 whole entry): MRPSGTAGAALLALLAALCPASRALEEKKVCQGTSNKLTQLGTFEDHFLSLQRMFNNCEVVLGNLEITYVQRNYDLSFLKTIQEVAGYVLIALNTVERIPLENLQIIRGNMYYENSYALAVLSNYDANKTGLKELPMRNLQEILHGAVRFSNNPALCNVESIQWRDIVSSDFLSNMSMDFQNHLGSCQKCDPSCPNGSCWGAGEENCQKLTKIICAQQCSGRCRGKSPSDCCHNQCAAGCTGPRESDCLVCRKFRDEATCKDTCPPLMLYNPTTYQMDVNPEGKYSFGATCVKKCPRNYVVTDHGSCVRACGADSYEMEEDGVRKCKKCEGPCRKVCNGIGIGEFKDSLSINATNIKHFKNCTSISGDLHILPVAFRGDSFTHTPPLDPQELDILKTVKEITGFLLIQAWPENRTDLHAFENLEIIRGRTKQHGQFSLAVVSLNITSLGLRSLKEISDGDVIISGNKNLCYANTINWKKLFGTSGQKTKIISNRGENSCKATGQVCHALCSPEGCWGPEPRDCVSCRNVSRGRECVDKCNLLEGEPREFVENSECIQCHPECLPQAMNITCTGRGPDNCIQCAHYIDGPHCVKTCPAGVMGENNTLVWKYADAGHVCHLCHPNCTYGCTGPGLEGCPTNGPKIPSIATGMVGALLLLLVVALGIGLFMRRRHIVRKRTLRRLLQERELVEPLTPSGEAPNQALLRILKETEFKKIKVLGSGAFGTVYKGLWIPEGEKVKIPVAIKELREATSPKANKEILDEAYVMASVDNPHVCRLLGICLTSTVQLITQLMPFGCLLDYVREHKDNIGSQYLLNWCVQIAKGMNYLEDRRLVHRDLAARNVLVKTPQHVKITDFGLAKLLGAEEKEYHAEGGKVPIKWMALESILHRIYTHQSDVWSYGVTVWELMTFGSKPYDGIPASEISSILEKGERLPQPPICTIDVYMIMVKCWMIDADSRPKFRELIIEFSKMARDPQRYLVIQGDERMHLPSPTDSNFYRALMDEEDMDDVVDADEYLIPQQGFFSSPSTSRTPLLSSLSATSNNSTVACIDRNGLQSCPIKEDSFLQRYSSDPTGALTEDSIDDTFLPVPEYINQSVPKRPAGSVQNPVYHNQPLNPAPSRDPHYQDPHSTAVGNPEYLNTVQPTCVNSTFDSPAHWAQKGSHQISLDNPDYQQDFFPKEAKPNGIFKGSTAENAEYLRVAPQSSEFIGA

| inhibition [1] | inhibition [2] | inhibition [3] | inhibition [4] | inhibition [5] | inhibition [6] | Structure (SMILES) |
| --- | --- | --- | --- | --- | --- | --- |
| < 50% | < 50% | < 50% | < 50% | 51.8% | 60.6% | CC(=O)Nc1cc(-c2c(-c3ccc(F)cc3)nc(S/C=C\C(=O)O)n2C2CC2)ccn1 |
| < 50% | < 50% | < 50% | < 50% |  |  | CC(=O)Nc1cc(-c2c(-c3ccc(F)cc3)nc(S/C=C\C(=O)O)n2CC2CCCO2)ccn1 (racemic) |
| < 50% | < 50% | < 50% | < 50% |  |  | COC(Cn1c(SC2CCC(C(=O)O)CC2O)nc(-c2ccc(F)cc2)c1-c1ccnc(NC(C)=O)c1)OC (configuration not stated) |

The remaining lines, values behind:

| Structure (SMILES) | inhibition [1] | inhibition [2] | inhibition [3] | inhibition [4] | inhibition [5] | inhibition [6] |
| --- | --- | --- | --- | --- | --- | --- |
| CC(=O)Nc1cc(-c2c(-c3ccc(F)cc3)nc(Sc3cccc(I)n3)n2C2CCCCC2)ccn1 | < 50% | < 50% | < 50% | < 50% |  |  |
| CC(=O)Nc1cc(-c2c(-c3ccc(F)cc3)nc(S/C=C\C(=O)O)n2C2CCCCC2)ccn1 | < 50% | < 50% | < 50% | < 50% |  |  |
